Reference: US20240294478A1, “ANTI-CANCER COMPOUNDS AND METHODS OF USE” (YALE UNIVERSITY, priority 2021, published 2024)
Where two headings read alike, the source gives them in different places.

Assays:
[1] = system: PD20 cells, deficient in FANCD2 (FANCD2−/−) or complemented with FANCD2; experiment: Short-term viability assay, PD20 cells; format: cell-based, human; conditions: PD20 FANCD2−/− vs +FANCD2
Experimental: FIGS. 8A-8K. (FIG. 8A) Change in percent cells with 1 micronuclei from baseline (DMSO control) after treatment as in FIGS. 5A and 5C. […] (FIG. 8B) Short-term viability assay curves for KL-50 in PD20 cells, deficient in FANCD2 (FANCD2−/−) or complemented with FANCD2 (+FANCD2). (FIG. 8C) Short-term viability assay curves for KL-50 in PEO4 (BRCA2+) and PEO1 (BRCA2−/−) cells pre-treated with 0.01% DMSO control or 10 μM O^6BG (+O^6BG) for 1 h prior to KL-50 addition. (FIG. 8D) Short-term viability assay curves for KL-50 in DLD1 BRCA2+/− and BRCA2−/−cells pre-treated with 0.01% DMSO control or 10 μM O^6BG (+O^6BG) for 1 h prior to KL-50 addition. For FIGS. 8B-8D, points, mean; error bars, SD; n=3 technical replicates. […] Change in percent cells with 1 micronuclei from baseline (DMSO control) after treatment with olaparib (10 μM) for 48 h in LN229 MGMT+/−, MMR+/−cells. […] Western blot analysis of FANCD2 ubiquitination in LN229 MGMT+/−, MMR+/−cells and PD20 FANCD2-deficient cells, complemented with empty vector (FANCD2+EV), wildtype FANCD2 (PD20+FD2) or ubiquitination-mutant FANCD2 (PD20+KR). The % FANCD2 ubiquitination (% FANCD2 Ub) is quantified as the background-corrected integrated band intensity of the upper band divided by the sum of the background-corrected integrated band intensities of the upper and lower bands. The fold change in % FANCD2 ubiquitination is presented for each cell line relative to DMSO-treated cells. Vinculin serves as loading control. For 8J-8K, points, mean; error bars, SD; n=3 technical replicates.
(§1) Short-term Cell Viability Assay. Cells were seeded in 96-well plates at 1000 or 2000 cells/well and allowed to adhere at 23° C. for 60 min and then incubated overnight at 37° C. […] Cells were imaged on a Cytation 3 imaging reader (BioTek) and quantified using CellProfiler software. For in vitro short-term growth delay experiments, IC50 values were determined from the nonlinear regression equation, [inhibitor] vs normalized response with variable slope.

LN229 MGMT+/MMR+ cells = experiment: Short-term cell viability assay, LN229 MGMT+/MMR+; format: cell-based; conditions: Homo sapiens, read-out: IC50 against LN229 cell lines, MGMT+ MMR+
Experimental: (§2) LN229 MGMT- and MGMT+ cell lines were a gift from B. Kaina (Johannes Gutenberg University Mainz, Mainz, Germany) and grown in Gibco® Duilbecco's Modified Eagle Medium with 10% fetal bovine serum (DMEM). For each compound tested, the relationship between MGMT status and MMR status and compound activity, in terms of IC50 values ([…]), was determined by the following method. On day 1, LN229 isogenic cells of varying MGMT and MMR status were seeded in 96 well format at a density of 2000 cells/well in 100 μL of DMEM media and allowed to adhere overnight. On day 2, a drug master plate was made with 100×the desired maximal concentration of test compound and serially diluted by 2 until 100×the minimal desired concentration, with one DMSO control. Then daughter plates were created with varied concentrations from 3-times the minimal concentration to 3-times the maximal desired concentration. Afterwards, 50 μL of daughter drug plate was added to 100 μL of the seeded cells for a final concentration of 1×in triplicate. Cells were allowed to grow for 6 days. On day 7, the cells were fixed, and stained with Hoechst nuclear dye and imaged to determine growth inhibition.
(§3) For each compound tested, the relationship between MGMT status and MMR status and compound activity, in terms of IC50 values (in μM), was determined. In addition, for each compound, the therapeutic index (TI) was calculated, according to the equation MGMT TI=IC50 (MGMT+/MMR+) divided by IC50 (MGMT−/MMR+). The T1 indicates the efficacy of a compound in treating the targeted MGMT-cancer cells as compared to potential for the same compound to damage, or have adverse effects against, normal cells which are MGMT+cells, The higher the value of the TI, the safer the compound is. […] MMR RI (resistance index)=IC50 (MGMT−/MMR−) divided by IC50 (MGMT−/MMR+). The higher the value of the RI, the less likely that resistance to the compound will develop.
(§4) Short-term Cell Viability Assay. Cells were seeded in 96-well plates at 1000 or 2000 cells/well and allowed to adhere at 23° C. for 60 min and then incubated overnight at 37° C. Cells were treated with indicated concentrations of compounds in triplicate for 4-6 days prior to fixation with 3.7% paraformaldehyde and nuclear staining with 1 μg/mL Hoechst 33342 dye. Cells were imaged on a Cytation 3 imaging reader (BioTek) and quantified using CellProfiler software. For in vitro short-term growth delay experiments, IC50 values were determined from the nonlinear regression equation, [inhibitor] vs normalized response with variable slope.

LN229 MGMT+/MMR− cells = experiment: Short-term cell viability assay, LN229 MGMT+/MMR- (shRNA targeting MSH2); format: cell-based; conditions: Homo sapiens
Experimental: as §2, §3, §4

MGMT− LN229 cells = experiment: Clonogenic survival assay, LN229 MGMT- cells; format: cell-based, human; conditions: isogenic cells lacking MMR
Experimental: (§5) In vitro clonogenic survival assays (CSAs) were performed using four isogenic LN229 glioblastoma cell lines.
(§6) Clonogenic Cell Survival Assay. Cells of each line were pretreated with the test drug in culture for 48-72 hours at the specified dilutions. The cells were then immediately seeded in six-well plates in triplicate at three-fold dilutions, ranging from 9000 to 37 cells per well. Depending on colony size, these plates were kept in the incubator for 10 to 14 days. After incubation, colonies were washed in phosphate-buffered saline (PBS) and stained with crystal violet. Colonies were counted by hand. Counts were normalized to plating efficiency of the corresponding treatment condition.

LN229 MGMT−/MMR− cells = experiment: Short-term cell viability assay, LN229 MGMT-/MMR- (shRNA targeting MSH2); format: cell-based, human; conditions: for IC50: Homo sapiens, read-out: IC50 against LN229 cell lines, MGMT− MMR−
Experimental: as §2
For each compound tested, the relationship between MGMT status and MMR status and compound activity, in terms of IC50 values (in μM), was determined. In addition, for each compound, the therapeutic index (TI) was calculated, according to the equation MGMT TI=IC50 (MGMT+/MMR+) divided by IC50 (MGMT−/MMR+). […] MMR RI (resistance index)=IC50 (MGMT−/MMR−) divided by IC50 (MGMT−/MMR+).
as §1

MGMT+ LN229 cells = experiment: Clonogenic survival assay, LN229 MGMT+ cells; format: cell-based, human; conditions: irrespective of MMR status
Experimental: as §5, §6

LN229 MGMT−/MMR+ cells = experiment: Short-term cell viability assay, LN229 MGMT-/MMR+; format: cell-based, human; conditions: for IC50: Homo sapiens, read-out: IC50 against LN229 cell lines, MGMT− MMR+
Experimental: as §2, §3, §4

[2] = LN-229, 144 h, Table 1, 6 days growth, Hoechst nuclear count
[3] = LN-229, 144 h, Table 1, 6 days growth, read-out: IC50 against LN229 cell lines, MGMT+ MMR−
[4] = LN-229, 144 h, Table 1, 6 days growth

Structure (SMILES): CO[C@@]12[C@H](COC(N)=O)C3=C(C(=O)C(C)=C(N)C3=O)N1C[C@@H]1N[C@@H]12 [MMC, Mitomycin C]
- sensitivity of FANCD2-deficient cells [1]: hypersensitivity to crosslinking agents in FANCD2−/−cells

Structure (SMILES): O=NN(CCCl)C(=O)NC1CCCCC1 [CCNU, 1-(2-chloroethyl)-3-cyclohexyl-1-nitrosourea, reference compound]
- IC50 (LN229 MGMT+/MMR+ cells; LN-229, Table II): 21.6 ± 3.2 µM
- IC50 (LN229 MGMT+/MMR− cells; LN-229, Table II, read-out: IC50 against LN229 cell lines, MGMT MMR−): 26.8 ± 7.3 µM
- clonogenic survival, activity in MMR− cells (MGMT− LN229 cells): effective in MMR− cells
- IC50 (LN229 MGMT−/MMR− cells; LN-229, Table II): 4.2 ± 0.2 µM
- activity in MGMT−/MMR− cells, in words (LN229 MGMT−/MMR− cells; LN229 MGMT−/MMR−): effective against MGMT−/MMR− cells
- MGMT− RI (resistance index) (LN229 MGMT−/MMR− cells; Table II, IC50 (MGMT−/MMR−) divided by IC50 (MGMT−/MMR+)): 0.7
- clonogenic survival, activity in MGMT+ cells (MGMT+ LN229 cells): cytotoxic to MGMT+cells
- IC50 (LN229 MGMT−/MMR+ cells; LN-229, Table II): 6.3 ± 0.3 µM
- TI / RI, in words (LN229 MGMT−/MMR+ cells; LN229 isogenic lines): poor TI
- MGMT− TI (therapeutic index) (LN229 MGMT−/MMR+ cells; Table II, IC50 (MGMT+/MMR+) divided by IC50 (MGMT−/MMR+)): 3.4

Structure (SMILES): NC(=O)c1nc[nH]c1/N=N/N(CCF)C(=O)Cc1ccccc1 [Compound E2, (E)-5-(3-(2-fluoroethyl)-3-(2-phenylacetyl)triaz-1-en-1-yl)-1H-imidazole-4-carboxamide]
- IC50 (LN229 MGMT+/MMR+ cells; [2]): > 100 µM
- IC50 (LN229 MGMT+/MMR− cells; [3]): 72 ± 30 µM
- IC50 (LN229 MGMT−/MMR− cells; [4]): 21 ± 1 µM
- IC50 (LN229 MGMT−/MMR+ cells; [4]): 28 ± 1 µM

Structure (SMILES): NC(=O)c1nc[nH]c1/N=N/N(CCF)C(=O)OCc1ccccc1 [Compound E4]
- IC50 (LN229 MGMT+/MMR+ cells; [2]): 14 ± 1 µM
- IC50 (LN229 MGMT+/MMR− cells; [3]): 11 ± 1 µM
- IC50 (LN229 MGMT−/MMR− cells; [4]): 17 ± 1 µM
- IC50 (LN229 MGMT−/MMR+ cells; [4]): 8 ± 1 µM
